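Grown in 96-well plates, cells were treated for 48 hours with each compound at five concentrations. Insufficient inhibition: endpoint recorded as highest concentration tested. The concentration for 50% growth inhibition is given as GI50.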 Activity calls are given as the source filed them. Cut-off read from the data, not from the text of the source: active = GI50 up to about 1.1 µM and inactive = higher.
Legend:
Experiment in all cases: growth of human tumour cells (NCI), 48 h
[1] = tested on: MDA-MB-435
[2] = tested on: SF-539
[3] = tested on: COLO 205
[4] = tested on: NCI-H522
[5] = tested on: HCT-116
[6] = tested on: MDA-N
[7] = tested on: UO-31
[8] = tested on: BT-549
[9] = tested on: SF-268
[10] = tested on: NCI-H226
[11] = tested on: PC-3
[12] = tested on: M14
[13] = tested on: OVCAR-5
[14] = tested on: 786-0
[15] = tested on: EKVX
[16] = tested on: MDA-MB-231
[17] = tested on: HT-29
[18] = tested on: SK-OV-3
[19] = tested on: TK-10
[20] = tested on: MCF7
[21] = tested on: T47D
[22] = tested on: SN12C
[23] = tested on: IGROV-1
[24] = tested on: NCI/ADR-RES
[25] = tested on: HCT-15
[26] = tested on: MOLT-4
[27] = tested on: ACHN
[28] = tested on: Malme-3M
[29] = tested on: U-251
[30] = tested on: NCI-H23
[31] = tested on: HCC 2998
[32] = tested on: SNB-19
[33] = tested on: SK-MEL-2
[34] = tested on: CAKI-1
[35] = tested on: DU-145
[36] = tested on: SK-MEL-28
[37] = tested on: UACC-62
[38] = tested on: A549
[39] = tested on: OVCAR-4
[40] = tested on: CCRF-CEM
[41] = tested on: OVCAR-8
[42] = tested on: Hs-578T
[43] = tested on: K562
[44] = tested on: HOP-92
[45] = tested on: RPMI-8226
[46] = tested on: NCI-H460
[47] = tested on: SK-MEL-5
[48] = tested on: A498
[49] = tested on: UACC-257
[50] = tested on: SF-295
[51] = tested on: HL-60
[52] = tested on: SR
[53] = tested on: HOP-62
[54] = tested on: SW-620
[55] = tested on: SNB-75
[56] = tested on: RXF 393
[57] = tested on: OVCAR-3
[58] = tested on: LOX IMVI
[59] = tested on: KM12
[60] = tested on: SNB-78
[61] = tested on: KM-20L2
[62] = tested on: DMS-273
[63] = tested on: M19-MEL
[64] = tested on: DLD-1
[65] = tested on: DMS-114
[66] = tested on: HOP-18

COc1ccc2c(c1)CCCC(Br)C2=O (stereo not drawn)
GI50 [1]: 2.02 µM (inactive)
GI50 [2]: 2.56 µM (inactive)
GI50 [3]: 3.44 µM (inactive)
GI50 [4]: 0.265 µM (active)
GI50 [5]: 0.407 µM (active)
GI50 [6]: 2.88 µM (inactive)
GI50 [7]: 2.17 µM (inactive)
GI50 [8]: 2.55 µM (inactive)
GI50 [9]: 3.35 µM (inactive)
GI50 [10]: 2.18 µM (inactive)
GI50 [11]: 3.9 µM (inactive)
GI50 [12]: 3.4 µM (inactive)
GI50 [13]: 5.92 µM (inactive)
GI50 [14]: 4.15 µM (inactive)
GI50 [15]: 18.1 µM (inactive)
GI50 [16]: 2.92 µM (inactive)
GI50 [17]: 5.31 µM (inactive)
GI50 [18]: 3.97 µM (inactive)
GI50 [19]: 4.21 µM (inactive)
GI50 [20]: 3.43 µM (inactive)
GI50 [21]: 23.9 µM (inactive)
GI50 [22]: 2.75 µM (inactive)
GI50 [23]: 1.51 µM (inactive)
GI50 [24]: 4.34 µM (inactive)
GI50 [25]: 0.929 µM
GI50 [26]: 0.136 µM (active)
GI50 [27]: 6.32 µM (inactive)
GI50 [28]: 4.48 µM (inactive)
GI50 [29]: 4.72 µM (inactive)
GI50 [30]: 4.9 µM (inactive)
GI50 [31]: 7.66 µM (inactive)
GI50 [32]: 8.18 µM (inactive)
GI50 [33]: 1.24 µM (inactive)
GI50 [34]: 2.96 µM (inactive)
GI50 [35]: 15.1 µM (inactive)
GI50 [36]: 6.92 µM (inactive)
GI50 [37]: 2.8 µM (inactive)
GI50 [38]: 4.71 µM (inactive)
GI50 [39]: 6.52 µM (inactive)
GI50 [40]: 0.337 µM (active)
GI50 [41]: 3.98 µM (inactive)
GI50 [42]: 17.1 µM (inactive)
GI50 [43]: 0.447 µM (active)
GI50 [44]: 7.57 µM (inactive)
GI50 [45]: 2.34 µM (inactive)
GI50 [46]: 3.18 µM (inactive)
GI50 [47]: 2.55 µM (inactive)
GI50 [48]: 19.6 µM (inactive)
GI50 [49]: 11.5 µM (inactive)
GI50 [50]: 3.99 µM (inactive)
GI50 [51]: 3.59 µM (inactive)
GI50 [52]: 0.294 µM (active)
GI50 [53]: 5.55 µM (inactive)
GI50 [54]: 2.29 µM (inactive)
GI50 [55]: 12.6 µM (inactive)
GI50 [56]: 4.78 µM (inactive)
GI50 [57]: 9.08 µM (inactive)
GI50 [58]: 0.379 µM (active)
GI50 [59]: 3.24 µM (inactive)

Nc1ccn(C2C=C(CO)C(O)C2O)c(=O)c1 (stereo not drawn)
GI50 [2]: > 625 µM (inactive)
GI50 [3]: > 625 µM (inactive)
GI50 [5]: > 625 µM (inactive)
GI50 [60]: > 625 µM (inactive)
GI50 [61]: > 625 µM (inactive)
GI50 [7]: > 625 µM (inactive)
GI50 [9]: > 625 µM (inactive)
GI50 [10]: > 625 µM (inactive)
GI50 [17]: > 625 µM (inactive)
GI50 [18]: > 625 µM (inactive)
GI50 [20]: > 625 µM (inactive)
GI50 [22]: > 625 µM (inactive)
GI50 [23]: > 625 µM (inactive)
GI50 [24]: > 625 µM (inactive)
GI50 [25]: > 625 µM
GI50 [62]: > 625 µM (inactive)
GI50 [31]: > 625 µM (inactive)
GI50 [63]: > 625 µM (inactive)
GI50 [32]: > 625 µM (inactive)
GI50 [64]: > 62.5 µM (inactive)
GI50 [33]: > 625 µM (inactive)
GI50 [34]: > 625 µM (inactive)
GI50 [37]: > 625 µM (inactive)
GI50 [38]: > 625 µM (inactive)
GI50 [39]: > 625 µM (inactive)
GI50 [41]: > 625 µM (inactive)
GI50 [44]: > 625 µM (inactive)
GI50 [65]: > 625 µM (inactive)
GI50 [45]: > 625 µM (inactive)
GI50 [46]: > 625 µM (inactive)
GI50 [47]: > 625 µM (inactive)
GI50 [50]: > 625 µM (inactive)
GI50 [51]: > 625 µM (inactive)
GI50 [66]: > 625 µM (inactive)
GI50 [53]: > 625 µM (inactive)
GI50 [54]: > 625 µM (inactive)
GI50 [55]: > 625 µM (inactive)
GI50 [57]: > 625 µM (inactive)
GI50 [58]: > 625 µM (inactive)
GI50 [59]: > 625 µM (inactive)

O=C1c2cccnc2C(=O)c2c1nc1ccccc1c2-c1ccc2c3c(nc4ccccc42)C(=O)c2cccnc2-c13
GI50 [1]: 1.87 µM (inactive)
GI50 [2]: 0.832 µM (active)
GI50 [3]: 2.08 µM (inactive)
GI50 [4]: 0.692 µM (active)
GI50 [5]: 0.459 µM (active)
GI50 [6]: 2.13 µM (inactive)
GI50 [7]: 1.24 µM (inactive)
GI50 [8]: 2.46 µM (inactive)
GI50 [9]: 0.52 µM (active)
GI50 [10]: 0.859 µM (active)
GI50 [11]: 1.44 µM (inactive)
GI50 [12]: 0.405 µM (active)
GI50 [13]: 6.43 µM (inactive)
GI50 [14]: 0.417 µM (active)
GI50 [15]: 0.94 µM (active)
GI50 [16]: 2.21 µM (inactive)
GI50 [17]: 2.38 µM (inactive)
GI50 [18]: 1.85 µM (inactive)
GI50 [19]: 2.76 µM (inactive)
GI50 [20]: 2.07 µM (inactive)
GI50 [21]: 4.58 µM (inactive)
GI50 [22]: 0.912 µM (active)
GI50 [23]: 0.0728 µM (active)
GI50 [24]: 1.45 µM (inactive)
GI50 [25]: 0.195 µM
GI50 [26]: 0.638 µM (active)
GI50 [27]: 0.383 µM (active)
GI50 [28]: 1.04 µM (active)
GI50 [29]: 1.75 µM (inactive)
GI50 [30]: 1.06 µM (active)
GI50 [31]: 1.59 µM (inactive)
GI50 [32]: 1.84 µM (inactive)
GI50 [33]: 2.1 µM (inactive)
GI50 [34]: 1.75 µM (inactive)
GI50 [35]: 0.359 µM (active)
GI50 [36]: 2.55 µM (inactive)
GI50 [37]: 1.73 µM (inactive)
GI50 [38]: 2.17 µM (inactive)
GI50 [39]: 1.08 µM (active)
GI50 [40]: 2.07 µM (inactive)
GI50 [41]: 0.37 µM (active)
GI50 [42]: 1.81 µM (inactive)
GI50 [43]: 1.58 µM (inactive)
GI50 [44]: 10.5 µM (inactive)
GI50 [45]: 1.63 µM (inactive)
GI50 [46]: 1.55 µM (inactive)
GI50 [47]: 0.467 µM (active)
GI50 [48]: 2.69 µM (inactive)
GI50 [49]: 2.04 µM (inactive)
GI50 [50]: 2.56 µM (inactive)
GI50 [51]: 1.2 µM (inactive)
GI50 [52]: < 0.01 µM (active)
GI50 [53]: 1.17 µM (inactive)
GI50 [54]: 0.268 µM (active)
GI50 [55]: 2.07 µM (inactive)
GI50 [56]: 0.838 µM (active)
GI50 [57]: 0.244 µM (active)
GI50 [58]: 0.437 µM (active)
GI50 [59]: 0.971 µM (active)
